These results are taken from patent US20050257287A1, “Vectors capable of imparting herbicide resistance and viral cross protection and methods” (priority 2002, published 2005).

The subject of the test is weeds including nutgrass (Cyperus rotundus L.), little hogweed (Portulaca oleracea L.), pigweed (Amaranthus sp.) and annual graminaceous weeds. Kind of test: Field experiment: weed eradication by Basta. Type of test: in vivo. The settings on record: 0.5% Basta with or without AMS 1.5 g/L. The procedure: Two varieties of melon (Galia-type cv. 5080 and Ananas-type cv. Ofir), two varieties of watermelon (cvs Crimson and Seedless 313), squash (cv. Maayan) and cucumber (cv. Shimshon) were seeded in Speedling type trays. Seedlings were inoculated by bombardment of cotyledons with the AGII-Bar or AGII construct. Plants were planted in a 500 m^2 field, in a sandy loam soil, at 0.5 m intervals in six 2 m wide rows and irrigated by a single line of 0.5 m interval dripline. Each row included 15 plants of each of the five-cucurbit varieties, 13 plants inoculated with AGII-Bar and two inoculated with AGII as a control. Irrigation was initiated a week previously to boost weeds and facilitate planting. […] The active ingredient was calculated per hectare (g a.i./ha) on basis of ground speed measured separately for each treatment. […] Squash fruit were picked and counted daily. […] Each group was counted and then weighed collectively.
In order to verify the applicability of AGII-Bar to commercial cucurbit cultivation in a field prone to weed infestation an experiment including more than 450 plants was conducted. […] Ten day post inoculation, the infection rate was determined by ELISA of 50 random plant samples and found to be 100%. […]

Consider ammonium sulphate [AMS], for which the “Effect of adjuvant on herbicidal activity” value is reported as “did not exert a detectable difference”.
